From ChEMBL document CHEMBL2169877, “Antagonists of 5-HT₆ receptors. Substituted 3-(phenylsulfonyl)pyrazolo[1,5-a]pyrido[3,4-e]pyrimidines and 3-(phenylsulfonyl)pyrazolo[1,5-a]pyrido[4,3-d]pyrimidines-Synthesis and 'structure-activity' relationship” (Bioorg Med Chem Lett, 2012)
Active and inactive are the calls of the source. The rule behind the calls is not given here.

Tests used:
[1] = biological target: Voltage-gated inwardly rectifying potassium channel KCNH2 (Homo sapiens, UniProt Q12809); assay: Inhibition of human recombinant ERG channel expressed in […] cells after 3 to 8 mins by voltage clamp assay; assay type: cell-based
[2] = biological target: T1, 5-hydroxytryptamine receptor 6 (Homo sapiens, UniProt P50406); assay: Antagonist activity at human recombinant 5HT6 receptor expressed in […] cells assessed as inhibition of serotonin-induced cAMP accumulation after 2 hrs; assay type: functional, cell-based, HEK293
[3] = biological target: T2, 5-hydroxytryptamine receptor 2B (Homo sapiens, UniProt P41595); assay: Displacement of [3H]lysergic acid diethylamide from human recombinant 5HT2B receptor at 1 uM
[4] = biological target: T1, 5-hydroxytryptamine receptor 6; assay: Displacement of [3H]lysergic acid diethylamide from human recombinant 5HT6 receptor expressed in HeLa cells after 120 mins; assay type: cell-based
[5] = biological target: T2, 5-hydroxytryptamine receptor 2B; assay: Antagonist activity at human recombinant 5HT2B receptor expressed in HEK293 cells assessed as inhibition of alphamethyl5HT-induced intracellular calcium mobilization by Fluo4-based staining method; assay type: functional, cell-based
[6] = biological target: T2, 5-hydroxytryptamine receptor 2B; assay: Agonist activity at human recombinant 5HT2B receptor expressed in HEK293 cells assessed as increase in intracellular calcium mobilization by Fluo4-based staining method; assay type: functional, cell-based
[7] = Binding affinity to N-type calcium channel at 1 uM by radioligand displacement assay
[8] = Binding affinity to P2Y receptor at 1 uM by radioligand displacement assay
[9] = Binding affinity to PDE2 at 1 uM by radioligand displacement assay
[10] = biological target: 5-hydroxytryptamine receptor 4 (Homo sapiens) (UniProt Q13639); assay: Binding affinity to 5HT4 receptor at 1 uM by radioligand displacement assay
[11] = biological target: Alpha-1A adrenergic receptor (Homo sapiens) (UniProt P35348); assay: Binding affinity to alpha1A adrenergic receptor at 1 uM by radioligand displacement assay
[12] = biological target: Cannabinoid receptor 1 (Homo sapiens) (UniProt P21554); assay: Binding affinity to CB1 receptor at 1 uM by radioligand displacement assay
[13] = biological target: Cyclin-dependent kinase 2/cyclin A (Homo sapiens) (UniProt P24941+P20248+P78396); assay: Binding affinity to CDK2/cyclin A at 1 uM by radioligand displacement assay; assay type: protein-complex assay
[14] = biological target: D(1A) dopamine receptor (Homo sapiens) (UniProt P21728); assay: Binding affinity to dopamine D1 receptor at 1 uM by radioligand displacement assay
[15] = biological target: Histamine H1 receptor (Homo sapiens) (UniProt P35367); assay: Binding affinity to histamine receptor H1 at 1 uM by radioligand displacement assay
[16] = Binding affinity to GABA-B receptor at 1 uM by radioligand displacement assay
[17] = Binding affinity to choline transporter at 1 uM by radioligand displacement assay
[18] = biological target: D(2) dopamine receptor (Homo sapiens) (UniProt P14416); assay: Binding affinity to dopamine D2L receptor at 1 uM by radioligand displacement assay
[19] = biological target: 5-hydroxytryptamine receptor 1A (Homo sapiens) (UniProt P08908); assay: Binding affinity to 5HT1A receptor at 1 uM by radioligand displacement assay
[20] = biological target: Adenosine receptor A3 (Homo sapiens) (UniProt P0DMS8); assay: Binding affinity to adenosine A3 receptor at 1 uM by radioligand displacement assay
[21] = biological target: Sodium-dependent serotonin transporter (Homo sapiens) (UniProt P31645); assay: Binding affinity to serotonin transporter at 1 uM by radioligand displacement assay
[22] = biological target: Beta-2 adrenergic receptor (Homo sapiens) (UniProt P07550); assay: Binding affinity to beta2 adrenergic receptor at 1 uM by radioligand displacement assay
[23] = Binding affinity to PDE1 at 1 uM by radioligand displacement assay
[24] = biological target: Amine oxidase [flavin-containing] A (Homo sapiens, UniProt P21397); assay: Binding affinity to MAO-A at 1 uM by radioligand displacement assay
[25] = biological target: Alpha-1B adrenergic receptor (Homo sapiens) (UniProt P35368); assay: Binding affinity to alpha1B adrenergic receptor at 1 uM by radioligand displacement assay
[26] = biological target: Cannabinoid receptor 2 (Homo sapiens) (UniProt P34972); assay: Binding affinity to CB2 receptor at 1 uM by radioligand displacement assay
[27] = Binding affinity to GABA(A) receptor TBOP binding site at 1 uM by radioligand displacement assay
[28] = Binding affinity to central-type GABA(A) receptor muscimol binding site at 1 uM by radioligand displacement assay
[29] = biological target: Adenosine receptor A1 (Homo sapiens) (UniProt P30542); assay: Binding affinity to adenosine A1 receptor at 1 uM by radioligand displacement assay
[30] = biological target: Histamine H3 receptor (Homo sapiens) (UniProt Q9Y5N1); assay: Binding affinity to histamine receptor H3 at 1 uM by radioligand displacement assay
[31] = Binding affinity to PDE5 at 1 uM by radioligand displacement assay
[32] = biological target: 5-hydroxytryptamine receptor 2C (Homo sapiens) (UniProt P28335); assay: Binding affinity to 5HT2C receptor at 1 uM by radioligand displacement assay
[33] = biological target: 5-hydroxytryptamine receptor 5A (Homo sapiens) (UniProt P47898); assay: Binding affinity to 5HT5 receptor at 1 uM by radioligand displacement assay
[34] = Binding affinity to PDE3 at 1 uM by radioligand displacement assay
[35] = biological target: Sodium-dependent noradrenaline transporter (Homo sapiens) (UniProt P23975); assay: Binding affinity to NET at 1 uM by radioligand displacement assay
[36] = Binding affinity to Glutamate receptor at 1 uM by radioligand displacement assay
[37] = Binding affinity to GABA(A) receptor RO-15-1788 binding site at 1 uM by radioligand displacement assay
[38] = biological target: 5-hydroxytryptamine receptor 3A (Homo sapiens) (UniProt P46098); assay: Binding affinity to 5HT3 receptor at 1 uM by radioligand displacement assay
[39] = biological target: Histamine H2 receptor (Homo sapiens) (UniProt P25021); assay: Binding affinity to histamine receptor H2 at 1 uM by radioligand displacement assay
[40] = biological target: Muscarinic acetylcholine receptor M2 (Homo sapiens) (UniProt P08172); assay: Binding affinity to M2 receptor at 1 uM by radioligand displacement assay
[41] = biological target: 5-hydroxytryptamine receptor 1B (Homo sapiens) (UniProt P28222); assay: Binding affinity to 5HT1B receptor at 1 uM by radioligand displacement assay
[42] = biological target: D(2) dopamine receptor (Homo sapiens) (UniProt P14416); assay: Binding affinity to dopamine D2S receptor at 1 uM by radioligand displacement assay
[43] = biological target: Nitric oxide synthase, inducible (Homo sapiens) (UniProt P35228); assay: Binding affinity to iNOS at 1 uM by radioligand displacement assay
[44] = Binding affinity to glycine transporter at 1 uM by radioligand displacement assay
[45] = biological target: Corticotropin-releasing factor receptor 1 (Homo sapiens) (UniProt P34998); assay: Binding affinity to CRF1R at 1 uM by radioligand displacement assay
[46] = Binding affinity to P2X receptor at 1 uM by radioligand displacement assay
[47] = biological target: Alpha-2B adrenergic receptor (Homo sapiens) (UniProt P18089); assay: Binding affinity to alpha2B adrenergic receptor at 1 uM by radioligand displacement assay
[48] = Binding affinity to GABA(A) receptor TBOB binding site at 1 uM by radioligand displacement assay
[49] = biological target: Acetylcholinesterase (Homo sapiens) (UniProt P22303); assay: Binding affinity to AChE at 1 uM by radioligand displacement assay
[50] = biological target: Beta-1 adrenergic receptor (Homo sapiens) (UniProt P08588); assay: Binding affinity to beta1 adrenergic receptor at 1 uM by radioligand displacement assay
[51] = Binding affinity to sodium channel site 2 at 1 uM by radioligand displacement assay
[52] = Binding affinity to peripheral benzodiazepine receptor at 1 uM by radioligand displacement assay
[53] = Binding affinity to PKC at 1 uM by radioligand displacement assay
[54] = biological target: Muscarinic acetylcholine receptor M1 (Homo sapiens) (UniProt P11229); assay: Binding affinity to M1 receptor at 1 uM by radioligand displacement assay
[55] = Binding affinity to L-type calcium channel phenylalkylamine binding site at 1 uM by radioligand displacement assay
[56] = biological target: Nitric oxide synthase 1 (Homo sapiens) (UniProt P29475); assay: Binding affinity to nNOS at 1 uM by radioligand displacement assay
[57] = biological target: Adenosine receptor A2a (Homo sapiens) (UniProt P29274); assay: Binding affinity to adenosine A2A receptor at 1 uM by radioligand displacement assay
[58] = biological target: RAC-alpha serine/threonine-protein kinase (Homo sapiens) (UniProt P31749); assay: Binding affinity to AKT1 at 1 uM by radioligand displacement assay
[59] = biological target: cAMP and cAMP-inhibited cGMP 3',5'-cyclic phosphodiesterase 10A (Homo sapiens) (UniProt Q9Y233); assay: Binding affinity to PDE10A1 at 1 uM by radioligand displacement assay
[60] = biological target: Cyclin-dependent kinase 5/CDK5 activator 1 (Homo sapiens) (UniProt Q00535+Q15078); assay: Binding affinity to cdk5/p35 at 1 uM by radioligand displacement assay; assay type: protein-complex assay
[61] = biological target: Metabotropic glutamate receptor 5 (Homo sapiens) (UniProt P41594); assay: Binding affinity to mGluR5 at 1 uM by radioligand displacement assay
[62] = biological target: Cyclin-dependent kinase 1/cyclin B1 (Homo sapiens) (UniProt P06493+P14635); assay: Binding affinity to CDK1/cyclin B at 1 uM by radioligand displacement assay; assay type: protein-complex assay
[63] = Binding affinity to adenosine transporter at 1 uM by radioligand displacement assay
[64] = biological target: Glycogen synthase kinase-3 beta (Homo sapiens) (UniProt P49841); assay: Binding affinity to GSK3beta at 1 uM by radioligand displacement assay
[65] = biological target: Amine oxidase [flavin-containing] B (Homo sapiens, UniProt P27338); assay: Binding affinity to MAO-B at 1 uM by radioligand displacement assay
[66] = biological target: D(3) dopamine receptor (Homo sapiens) (UniProt P35462); assay: Binding affinity to dopamine D3 receptor at 1 uM by radioligand displacement assay
[67] = biological target: Sodium-dependent dopamine transporter (Homo sapiens) (UniProt Q01959); assay: Binding affinity to DAT at 1 uM by radioligand displacement assay
[68] = Binding affinity to GABA transporter at 1 uM by radioligand displacement assay
[69] = Binding affinity to PDE4 at 1 uM by radioligand displacement assay
[70] = Binding affinity to L-type calcium channel benzothiazepine binding site at 1 uM by radioligand displacement assay
[71] = Binding affinity to central-type GABA(A) receptor flunitrazepam binding site at 1 uM by radioligand displacement assay
[72] = biological target: Alpha-2A adrenergic receptor (Homo sapiens) (UniProt P08913); assay: Binding affinity to alpha2A adrenergic receptor at 1 uM by radioligand displacement assay
Sequence of Alpha-2A adrenergic receptor (Homo sapiens) (P08913 whole entry): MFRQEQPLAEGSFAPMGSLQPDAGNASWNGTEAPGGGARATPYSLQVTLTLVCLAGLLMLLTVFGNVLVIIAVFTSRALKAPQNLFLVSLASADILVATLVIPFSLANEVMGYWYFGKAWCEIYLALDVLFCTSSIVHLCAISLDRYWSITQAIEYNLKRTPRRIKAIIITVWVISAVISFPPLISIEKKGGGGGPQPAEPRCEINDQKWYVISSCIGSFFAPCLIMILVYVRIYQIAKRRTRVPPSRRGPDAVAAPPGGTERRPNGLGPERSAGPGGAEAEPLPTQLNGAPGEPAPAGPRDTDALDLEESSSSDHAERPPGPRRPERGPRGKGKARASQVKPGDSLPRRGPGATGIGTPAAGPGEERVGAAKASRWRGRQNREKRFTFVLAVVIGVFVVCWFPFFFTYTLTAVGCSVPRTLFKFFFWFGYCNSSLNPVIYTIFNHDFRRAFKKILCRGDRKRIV

T1 sequence (P50406 whole entry): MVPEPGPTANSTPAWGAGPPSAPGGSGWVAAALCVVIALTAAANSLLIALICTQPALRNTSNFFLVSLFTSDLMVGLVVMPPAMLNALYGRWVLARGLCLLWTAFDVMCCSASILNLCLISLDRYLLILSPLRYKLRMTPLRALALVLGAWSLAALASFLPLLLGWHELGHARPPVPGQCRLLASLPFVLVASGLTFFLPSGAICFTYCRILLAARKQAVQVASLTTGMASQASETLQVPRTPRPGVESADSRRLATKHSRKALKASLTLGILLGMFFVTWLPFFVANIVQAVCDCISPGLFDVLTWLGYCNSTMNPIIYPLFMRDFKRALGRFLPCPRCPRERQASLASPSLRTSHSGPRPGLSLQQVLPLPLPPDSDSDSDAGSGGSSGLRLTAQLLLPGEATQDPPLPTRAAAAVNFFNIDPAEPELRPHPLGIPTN
T2 sequence (P41595 whole entry): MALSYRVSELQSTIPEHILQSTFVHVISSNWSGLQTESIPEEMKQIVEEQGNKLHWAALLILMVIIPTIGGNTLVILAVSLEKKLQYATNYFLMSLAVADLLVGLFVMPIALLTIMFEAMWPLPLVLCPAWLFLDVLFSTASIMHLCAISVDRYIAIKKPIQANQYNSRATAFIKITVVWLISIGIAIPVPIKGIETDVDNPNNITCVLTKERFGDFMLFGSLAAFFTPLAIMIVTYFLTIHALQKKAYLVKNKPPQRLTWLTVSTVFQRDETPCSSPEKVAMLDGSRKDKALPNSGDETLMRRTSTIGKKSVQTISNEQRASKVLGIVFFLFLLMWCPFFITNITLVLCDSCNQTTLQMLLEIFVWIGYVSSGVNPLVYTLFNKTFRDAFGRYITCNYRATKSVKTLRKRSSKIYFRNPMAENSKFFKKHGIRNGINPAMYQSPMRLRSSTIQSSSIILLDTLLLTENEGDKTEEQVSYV
Sequence of D(2) dopamine receptor (Homo sapiens) (P14416 whole entry): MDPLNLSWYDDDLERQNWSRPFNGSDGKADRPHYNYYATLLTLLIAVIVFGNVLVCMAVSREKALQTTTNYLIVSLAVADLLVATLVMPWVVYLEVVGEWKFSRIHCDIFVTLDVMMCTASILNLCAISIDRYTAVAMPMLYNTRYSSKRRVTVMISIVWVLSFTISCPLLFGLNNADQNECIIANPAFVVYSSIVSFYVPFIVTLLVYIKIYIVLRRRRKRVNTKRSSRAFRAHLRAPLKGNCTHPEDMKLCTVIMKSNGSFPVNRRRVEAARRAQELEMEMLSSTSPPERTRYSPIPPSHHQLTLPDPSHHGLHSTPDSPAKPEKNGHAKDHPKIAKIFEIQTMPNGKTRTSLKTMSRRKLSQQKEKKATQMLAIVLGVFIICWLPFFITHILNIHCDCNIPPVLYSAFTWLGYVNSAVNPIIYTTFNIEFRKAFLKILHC
Sequence of Alpha-2B adrenergic receptor (Homo sapiens) (P18089 whole entry): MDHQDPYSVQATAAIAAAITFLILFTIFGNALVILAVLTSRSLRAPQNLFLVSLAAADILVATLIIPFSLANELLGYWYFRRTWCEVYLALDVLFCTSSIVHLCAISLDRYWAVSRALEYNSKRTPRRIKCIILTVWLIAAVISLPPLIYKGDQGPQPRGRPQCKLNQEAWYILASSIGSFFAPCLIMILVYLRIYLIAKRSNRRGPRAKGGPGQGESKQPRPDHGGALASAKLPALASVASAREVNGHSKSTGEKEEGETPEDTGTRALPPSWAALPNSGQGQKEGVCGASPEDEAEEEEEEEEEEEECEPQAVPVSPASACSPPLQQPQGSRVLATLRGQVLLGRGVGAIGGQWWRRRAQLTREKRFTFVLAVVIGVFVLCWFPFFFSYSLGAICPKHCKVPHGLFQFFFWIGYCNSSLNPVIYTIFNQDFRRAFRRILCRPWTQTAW
Sequence of D(1A) dopamine receptor (Homo sapiens) (P21728 whole entry): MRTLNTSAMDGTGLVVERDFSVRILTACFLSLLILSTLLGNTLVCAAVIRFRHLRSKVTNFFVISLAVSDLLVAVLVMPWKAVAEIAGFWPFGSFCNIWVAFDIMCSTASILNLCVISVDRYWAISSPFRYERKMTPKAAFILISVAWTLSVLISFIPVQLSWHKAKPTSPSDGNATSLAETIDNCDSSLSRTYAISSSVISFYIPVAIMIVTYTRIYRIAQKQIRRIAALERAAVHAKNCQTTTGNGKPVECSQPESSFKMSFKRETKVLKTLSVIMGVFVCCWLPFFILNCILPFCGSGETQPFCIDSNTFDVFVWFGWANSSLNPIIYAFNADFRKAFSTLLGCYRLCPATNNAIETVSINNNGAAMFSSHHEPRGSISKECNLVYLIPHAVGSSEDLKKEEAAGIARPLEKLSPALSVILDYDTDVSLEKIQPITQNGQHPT
Sequence of Cyclin-dependent kinase 1/cyclin B1 (Homo sapiens) (P06493 whole entry, looked up): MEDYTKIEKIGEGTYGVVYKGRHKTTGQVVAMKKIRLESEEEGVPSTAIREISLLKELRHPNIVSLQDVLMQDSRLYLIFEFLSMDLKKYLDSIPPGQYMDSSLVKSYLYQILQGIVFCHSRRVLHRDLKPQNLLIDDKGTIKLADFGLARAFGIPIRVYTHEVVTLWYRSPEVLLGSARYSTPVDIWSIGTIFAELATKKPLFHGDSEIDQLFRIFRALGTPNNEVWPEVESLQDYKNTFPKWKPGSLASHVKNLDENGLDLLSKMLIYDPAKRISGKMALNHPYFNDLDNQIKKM
Sequence of Cyclin-dependent kinase 1/cyclin B1 (Homo sapiens) (P14635 whole entry, looked up): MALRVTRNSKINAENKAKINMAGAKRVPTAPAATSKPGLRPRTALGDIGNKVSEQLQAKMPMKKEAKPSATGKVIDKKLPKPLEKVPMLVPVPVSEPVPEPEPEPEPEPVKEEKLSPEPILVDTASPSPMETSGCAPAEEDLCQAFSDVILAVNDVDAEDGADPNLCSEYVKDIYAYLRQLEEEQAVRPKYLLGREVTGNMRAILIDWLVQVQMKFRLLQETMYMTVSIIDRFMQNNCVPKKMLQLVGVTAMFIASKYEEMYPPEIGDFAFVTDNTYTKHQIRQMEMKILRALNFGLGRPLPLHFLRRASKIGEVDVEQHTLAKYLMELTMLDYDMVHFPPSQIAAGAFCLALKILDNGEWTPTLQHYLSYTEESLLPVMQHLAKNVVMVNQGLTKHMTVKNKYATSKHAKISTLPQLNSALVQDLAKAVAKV
Sequence of Adenosine receptor A1 (Homo sapiens) (P30542 whole entry): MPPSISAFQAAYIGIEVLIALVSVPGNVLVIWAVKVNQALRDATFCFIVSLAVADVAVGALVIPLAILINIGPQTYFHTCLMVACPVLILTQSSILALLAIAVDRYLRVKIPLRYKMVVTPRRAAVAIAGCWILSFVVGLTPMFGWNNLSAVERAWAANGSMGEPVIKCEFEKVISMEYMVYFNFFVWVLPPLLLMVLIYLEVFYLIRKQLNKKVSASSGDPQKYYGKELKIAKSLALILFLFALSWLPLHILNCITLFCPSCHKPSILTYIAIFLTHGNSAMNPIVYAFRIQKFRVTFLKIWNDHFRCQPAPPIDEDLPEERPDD
Sequence of Glycogen synthase kinase-3 beta (Homo sapiens) (P49841 whole entry, looked up): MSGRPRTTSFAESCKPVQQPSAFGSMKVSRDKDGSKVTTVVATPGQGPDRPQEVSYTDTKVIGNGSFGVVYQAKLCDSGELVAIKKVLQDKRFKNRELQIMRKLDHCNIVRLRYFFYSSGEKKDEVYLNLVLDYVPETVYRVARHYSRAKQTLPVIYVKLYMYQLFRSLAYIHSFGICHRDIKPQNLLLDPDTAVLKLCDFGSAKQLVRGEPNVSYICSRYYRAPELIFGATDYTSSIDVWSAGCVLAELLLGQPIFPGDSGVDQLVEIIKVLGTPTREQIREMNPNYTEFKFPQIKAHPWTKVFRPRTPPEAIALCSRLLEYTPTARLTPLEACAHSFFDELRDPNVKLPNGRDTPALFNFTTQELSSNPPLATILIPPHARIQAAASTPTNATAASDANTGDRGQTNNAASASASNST
Sequence of Alpha-1B adrenergic receptor (Homo sapiens) (P35368 whole entry): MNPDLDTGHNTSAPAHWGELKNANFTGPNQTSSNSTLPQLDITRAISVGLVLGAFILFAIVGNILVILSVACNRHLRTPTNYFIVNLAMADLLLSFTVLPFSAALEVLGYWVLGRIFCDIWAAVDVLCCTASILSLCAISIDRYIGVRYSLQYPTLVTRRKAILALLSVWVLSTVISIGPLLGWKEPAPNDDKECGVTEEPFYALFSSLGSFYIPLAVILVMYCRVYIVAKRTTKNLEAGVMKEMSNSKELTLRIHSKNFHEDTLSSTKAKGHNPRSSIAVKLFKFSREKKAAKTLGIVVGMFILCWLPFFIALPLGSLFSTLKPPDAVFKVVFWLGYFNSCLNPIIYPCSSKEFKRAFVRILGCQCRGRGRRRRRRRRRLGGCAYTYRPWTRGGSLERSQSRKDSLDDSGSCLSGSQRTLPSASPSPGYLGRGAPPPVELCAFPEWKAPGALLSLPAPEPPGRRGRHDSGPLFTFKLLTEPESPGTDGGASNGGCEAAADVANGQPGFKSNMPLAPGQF

SMILES: CNc1nn2c3c(cnc2c1S(=O)(=O)c1ccccc1)CN(C)CC3
- IC50 [1]: 54200 nM
- Ki [2]: 1.8 nM
- Activity [3]: 50%
- Ki [4]: 0.39 nM
- inhibition [5]: Dose-dependent effect
- IC50 ([5]; read-out: IC50): 6160 nM
- Activity [6]: inactive

SMILES: CNc1nn2cc3c(nc2c1S(=O)(=O)c1ccccc1)CCN(C)C3
- Activity [7]: inactive
- Activity [8]: inactive
- Activity [9]: inactive
- Activity [10]: inactive
- Activity [11]: inactive
- Activity [12]: inactive
- Activity [13]: inactive
- Activity [14]: inactive
- Activity [15]: inactive
- Activity [16]: inactive
- Activity [17]: inactive
- Activity [18]: inactive
- Activity [19]: inactive
- Activity [20]: inactive
- Activity [21]: inactive
- Activity [22]: inactive
- Activity [23]: inactive
- Activity [24]: Not Active
- Activity [25]: inactive
- Activity [26]: inactive
- Activity [27]: inactive
- Activity [28]: inactive
- Activity [29]: inactive
- Activity [30]: inactive
- Activity [31]: inactive
- Activity [32]: inactive
- Activity [33]: inactive
- Activity [34]: inactive
- Activity [35]: inactive
- Activity [36]: inactive
- Activity [37]: inactive
- Activity [38]: inactive
- Activity [39]: inactive
- Activity [40]: inactive
- Activity [41]: inactive
- Activity [42]: inactive
- Activity [43]: inactive
- Activity [44]: inactive
- Activity [45]: inactive
- Ki [2]: 14.3 nM
- Activity [46]: inactive
- Activity [47]: inactive
- Activity [3]: inactive
- Activity [48]: inactive
- Activity [49]: inactive
- Activity [50]: inactive
- Activity [51]: inactive
- Activity [52]: inactive
- Activity [53]: inactive
- Activity [54]: inactive
- Activity [55]: inactive
- Activity [56]: inactive
- Activity [57]: inactive
- Activity [58]: inactive
- Activity [59]: inactive
- Activity [60]: inactive
- Activity [61]: inactive
- Activity [62]: inactive
- Activity [63]: inactive
- Activity [64]: inactive
- Activity [65]: Not Active
- Ki [4]: 0.82 nM
- Activity [66]: inactive
- IC50 ([5]; hek293): Not Active
- Activity [67]: inactive
- Activity [68]: inactive
- Activity [69]: inactive
- Activity [70]: inactive
- Activity [71]: inactive
- Activity [72]: inactive

SMILES: CSc1nn2c3c(cnc2c1S(=O)(=O)c1ccccc1)CN(C)CC3
- Ki [2]: 14.8 nM
- Ki [4]: 7.7 nM

SMILES: CNc1nn2c3c(cnc2c1S(=O)(=O)c1ccccc1)CNCC3
- Ki [2]: 1.9 nM

SMILES: CSc1nn2cc3c(nc2c1S(=O)(=O)c1ccccc1)CCN(C)C3
- Ki [2]: 492 nM

SMILES: CSc1nn2cc3c(nc2c1S(=O)(=O)c1ccc(F)cc1)CCN(C)C3
- Ki [2]: 1160 nM

SMILES: Cc1nn2cc3c(nc2c1S(=O)(=O)c1ccccc1)CCN(C)C3
- Ki [4]: > 10000 nM

SMILES: Cc1nn2c3c(cnc2c1S(=O)(=O)c1ccccc1)CN(C)CC3
- Ki [4]: 60.4 nM

SMILES: CNc1nn2cc3c(nc2c1S(=O)(=O)c1ccccc1)CCNC3
- Ki [2]: 2.1 nM

SMILES: CSc1nn2c3c(cnc2c1S(=O)(=O)c1ccc(F)cc1)CN(C)CC3
- Ki [4]: 35.7 nM
